This is an account of results in US20110033393A1, “Hydrazone Compounds and Their Use” (priority 2009, published 2011).

Experiment [1] concerns Beta-TC-6 cells. The experiment is described as follows: Insulin release enhancement in insulinoma cell line Beta-TC-6 (Assay 1). The class given is cell-based, mouse. Here is the method: Assay I: Insulin release enhancement by TRPM5 inhibitors was tested by the following procedure. Beta-TC-6 cells are an insulin-secreting cell line derived from transgenic mice expressing the large T-antigen of simian virus 40 (SV40) in pancreatic beta-cells as described by Poitout et al., Diabetes, 44:306-313 (1995). The cell line was obtained from ATCC cell bank CAT# CRL-11506 and grown in Dulbecco's Modified Eagle's Medium (DMEM) with 15% fetal bovine serum (FBS), 4 mM glutamine, 4.5 g/L glucose, 110 mg/L sodium pyruvate and 1× penn/strep antibiotic mix in a 37° C. incubator with 5% CO2. Cultures were routinely split 1:2 twice a week with the aid of trypsin.
The day before the assay 0.15×10^6 Beta-TC-6 cells were plated into each well of 96 well plates (Greiner bio-one V-bottom, Cat#: 651 180). The cells were spun at 1200 rpm for 5 min and cultured overnight. […] Insulin release in the supernatant was assessed using a commercially available ELISA kit (Mercodia Cat#: 10-1149-10) according to the manufacturer's protocol. The data were expressed as pg of insulin per number of cells. […]

Experiment [2] has as its system isolated rat primary islets. Put plainly: Insulin release from isolated primary rat islets. The class given is cell-based. The method, then: Isolation of Rat Islets: Islets were isolated from 226-250 g male Sprague Dawley rats from Taconic. The animals were initially anesthetized with CO2 gas and euthanized by cervical dislocation. The pancreatic duct was injected with 15 to 30 ml of Collagenase P (Roche Diagnostics catalog #1 249 002) at 0.6 mg/ml in Hanks' Balanced Salt Solution (HBSS) (Gibco Catalog #14025-076) supplemented with BSA (Sigma, catalog #A 7409) to a final concentration of 0.1%. The pancreas was excised and placed into a 20 ml scintillation vial, incubated in a water bath at 37° C. for 16 to 18 minutes and then shaken briskly for at least 60 seconds. The digested tissue was poured into a 50 ml conical tube (1 per tube) containing cold Hank's Buffer supplemented with BSA (as above) and washed 7-10 times. […]
Measurement of Insulin Release: Insulin release measurements were carried out in Krebs-Ringer bicarbonate buffer (118.4 mmol/liter NaCl, 4.69 mmol/liter KCl, 1.2 mmol/liter MgSO4, 1.18 mmol/liter KH2PO4, 2.4 mmol/liter CaCl2, and 20 mmol/liter NaHCO3 (equilibrated with 95% O2 and 5% CO2, pH 7.4) supplemented with BSA to a final concentration of 0.1%). […] Insulin release in the supernatant was assessed using a commercially available ELISA kit (Mercodia-Cat. #10-1124-10) according to the manufacturer's protocol. The data were expressed as pg of insulin per number of cells. […]

As to `Cc1cc(/C=N/NC(=O)C2CC2c2ccccc2)cc2cccnc12` (racemic) [Example 10, trans-N′-((8-Methylquinolin-6-yl)methylene)-2-phenylcyclopropanecarbohydrazide], the insulin secretion entry is recorded as “does not occur” in experiment [1] (Beta-TC-6, in the presence of 0.3 mM glucose); “dose-dependent increase of insulin secretion” in experiment [1] (Beta-TC-6, in the presence of 1 mM glucose); “insulin secretion is not observed” in experiment [2] (3 mM glucose, compound up to 10 μM); “significant dose-dependent increase in insulin secretion” in experiment [2] (12 mM glucose, compared to the DMSO control).
